Experiment [1] concerns the target T1, RARα/RXRα heterodimer bound to a DR-5 retinoic acid receptor response element (RARE) (Homo sapiens, UniProt P10276).
T1 construct: expressed in transfected cells; host or cells: CV-1 cells, transient transfection; whole cell extract
T1 sequence (P10276 1-462): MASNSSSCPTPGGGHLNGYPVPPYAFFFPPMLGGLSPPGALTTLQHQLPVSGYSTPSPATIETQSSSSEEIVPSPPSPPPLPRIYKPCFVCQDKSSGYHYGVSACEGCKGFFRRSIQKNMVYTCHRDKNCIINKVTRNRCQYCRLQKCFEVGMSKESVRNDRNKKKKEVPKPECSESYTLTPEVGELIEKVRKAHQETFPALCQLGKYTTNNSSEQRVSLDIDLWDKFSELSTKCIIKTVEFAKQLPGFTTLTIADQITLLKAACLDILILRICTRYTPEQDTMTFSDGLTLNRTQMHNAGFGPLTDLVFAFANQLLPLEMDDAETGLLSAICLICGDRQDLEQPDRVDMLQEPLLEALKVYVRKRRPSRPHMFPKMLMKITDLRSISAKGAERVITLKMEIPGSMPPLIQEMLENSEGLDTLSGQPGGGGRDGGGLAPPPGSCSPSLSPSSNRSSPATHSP
T1 sequence (P19793 1-462 partner): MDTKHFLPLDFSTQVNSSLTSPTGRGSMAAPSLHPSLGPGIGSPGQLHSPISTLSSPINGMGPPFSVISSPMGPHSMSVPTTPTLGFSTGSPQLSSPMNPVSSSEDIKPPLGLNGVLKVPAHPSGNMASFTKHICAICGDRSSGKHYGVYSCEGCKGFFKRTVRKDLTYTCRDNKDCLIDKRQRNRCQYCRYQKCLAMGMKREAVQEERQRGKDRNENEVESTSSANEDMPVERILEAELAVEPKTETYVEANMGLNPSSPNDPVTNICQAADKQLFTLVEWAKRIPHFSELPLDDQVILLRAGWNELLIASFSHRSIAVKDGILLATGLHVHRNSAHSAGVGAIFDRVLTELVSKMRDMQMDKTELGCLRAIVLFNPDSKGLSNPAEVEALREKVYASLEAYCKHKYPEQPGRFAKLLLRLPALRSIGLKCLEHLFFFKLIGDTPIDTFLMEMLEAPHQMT
Nature of the experiment: DNA dependent coregulator recruitment assay (ternary complex immunoprecipitation from transfected CV-1 whole cell extracts). Format: biochemical. To be noted: for ligand mediated dissociation of N-CoR: wild type RARα ternary complex; for SRC-1 recruitment to the wild type ternary complex: wild type RARα/RXRα, FIG. 1, FIG. 5B. As for the experimental part: Cells were transfected and cell extracts prepared essentially as follows. For whole cell extracts, CV-1 cells were cultured with D-MEM (Gibco-BRL Life Technologies; Rockville, Md.) containing 10% activated charcoal extracted fetal bovine serum (Gemini Bio-Products). At a density of 40˜60% (15-cm plate, Falcon; Fort Worth, Tex.), cells were transiently transfected with 15 μl FuGene 6 Transfection Reagent (Roche Diagnostics) with 0.5 ug of pRS-RXRα, and 5 ug of either pcDNA3.1-hRARα-V5, pcDNA3.1-hRARβ-V5 or pcDNA3.1-hRARγ-V5 per plate. After two days, cells were rinsed twice with PBS and lysed in cold NET buffer (20 mM Tris-Cl [pH8.0], 200 mM NaCl, 1 mM EDTA, 0.1% NP-40, 10% glycerol) containing protease inhibitors, homogenized by QIAshredder (Qiagen; Valencia, Calif.), and clarified by centrifugation.
Immunoprecipitations and western analyses were performed as follows. CV-1 whole cell extract from transfected cells (1 mg) was used for each immunoprecipitation. Cell lysates were incubated with ligands on ice for 1 hour. […] After a 1 hour incubation on ice with primary antibody (mouse anti-V5, Invitrogen), protein G-agarose (SIGMA) was added and samples were rocked overnight at 4° C. […] Membranes were probed with the indicated antibodies in PBS-T buffer (PBS with 0.1% Tween-20) containing 5% nonfat dry milk, and washed in PBS-T buffer. Primary antibodies (#SC553, rabbit anti-RXRα; #SC1609, goat anti-N-CoR) were obtained from Santa Cruz Biotech and Affinity BioReagents (#MA1-840, mouse anti-SRC-1; Golden, Colo.).
The DNA dependent coregulator recruitment assay was used to measure the ability of RARα selective ligands shown in Table 2 to recruit the coactivators SRC-1 and ACTR to the RARα/RXRα heterodimer bound to a DR-5 retinoic acid receptor response element (RARE).

Experiment [2] deals with ER-RARα. The experiment in a line: ER-RARα chimeric receptor transactivation assay in transfected CV-1 cells (luciferase). Format: cell-based. To be noted: CV-1 cells transfected with ER-RARα; highest dose tested 1 μM; FIG. 3A. As for the experimental part: (§1) RAR transactivation assays were performed essentially as previously described. For analysis of ER-RARα chimeric receptor transactivation, 5×10^3 CV-1 cells were plated per well of a 96-well microtiter plate and were transiently transfected with Lipofectamine and the indicated DNA. Specifically, transfections were performed with 0.1 μg of pERE-tk-Luc reporter, which contains the estrogen regulated element of the Xenopus vittelogenin A2 gene inserted into the plasmid tk-Luciferase, and 0.01 μg of the SV-40 based vector pECE carrying a chimeric ER-RAR receptor consisting of the estrogen receptor A/B and DNA binding domains fused to the DEF domain of RARα, β or γ. Alternatively, cells were cotransfected with the reporter plasmid MTV-4 (R5G)-Luciferase together with the plasmid pRS-hRXRα and either pRS-RARα-P-GR, pcDNA3-RARβ-P-GR, or pcDNA3-RARγ-P-GR as previously described (Klein et al., J. Biol. Chem. 271:22692-22696 (1996)). After eighteen hours, cells were rinsed with phosphate buffered saline (PBS) and fed with D-MEM (Gibco-BRL) containing 10% activated charcoal extracted fetal bovine serum (Gemini Bio-Products). Cells were treated with retinoids for 18 hours after which they were lysed; luciferase activity was measured as previously described, with luciferase values representing the mean±SEM of quadruplicate determinations.

In experiment [3] the target is RARα/RXRα heterodimer (wild type RARα-V5 with RXRα) in the RAR/RXR/DNA ternary complex (human) (UniProt P19793). The experiment in a line: co-immunoprecipitation of ternary complex, western blot; with 1 µM AGN196382, relative to 1 µM TTNPB. In general terms: A western blot detects proteins with antibodies after separation by electrophoresis.
Experiment [4] has the same target. The experiment in a line: co-immunoprecipitation of ternary complex, western blot; with 1 µM AGN194794, relative to 1 µM TTNPB.
In experiment [5] the test system is RARα-P-GR (wild type RARα). The experiment in a line: RARα-P-GR retinoid reporter transactivation in CV-1 cells. Format: cell-based. Particulars: FIG. 4. As to the method: as §1, with “After eighteen hours, cells were rinsed with phosphate buffered saline (PBS) and fed with D-MEM (Gibco-BRL) containing 10% activated charcoal extracted fetal bovine serum (Gemini Bio-Products).” left out
The RAR=60 R272-A mutant was analyzed for dominant negative activity using a retinoid reporter system responsive to transfected RARs recognizing RAREs containing a glucocorticoid receptor half-site (Klein et al., supra, 1996).

In experiment [6] the test system is AP-1. Nature of the experiment: Anti-AP1 assay: phorbol ester stimulated collagenase-promoter reporter containing an AP-1 response element. In kind it is cell-based. To be noted: for anti-AP-1 activity (antagonism of TPA stimulated collagenase reporter activity): FIG. 6. As to the method:
The ability of AGN196382 to antagonize phorbol ester stimulated transcription was assayed using a collagenase-promoter reporter construct containing an AP-1 response element. […] Specifically, detection of anti-AP-1 activity by AGN196382 was only detectable at doses greater than 10 μM; similarly, detection of SRC-1 recruitment to the ternary complex by 196382 was apparent only at doses greater than 10 μM. Such elevated doses of AGN196382, while sufficient for efficacious anti-AP-1 activity, are not sufficient for efficient transcriptional activation of RARα.

Experiment [7] has as its system RARα(R272-A)-P-GR. The experiment in a line: RARα(R272-A)-P-GR retinoid reporter transactivation in CV-1 cells. Format: cell-based. Particulars: FIG. 4.
Method: RAR transactivation assays were performed essentially as previously described. For analysis of ER-RARα chimeric receptor transactivation, 5×10^3 CV-1 cells were plated per well of a 96-well microtiter plate and were transiently transfected with Lipofectamine and the indicated DNA. […] After eighteen hours, cells were rinsed with phosphate buffered saline (PBS) and fed with D-MEM (Gibco-BRL) containing 10% activated charcoal extracted fetal bovine serum (Gemini Bio-Products). Cells were treated with retinoids for 18 hours after which they were lysed; luciferase activity was measured as previously described, with luciferase values representing the mean±SEM of quadruplicate determinations.
For experiment [8], the target named is T2, RARα R272-A containing ternary complex (Homo sapiens, UniProt P10276, R272A).
T2 construct: expressed in transfected cells; host or cells: CV-1 cells, transient transfection; whole cell extract
T2 sequence (P10276 1-462 R272A): T1 sequence (P10276 1-462) with R272A
T2 sequence (P19793 1-462 partner): T1 sequence (P19793 1-462 partner)
The experiment in a line: Ternary complex coregulator assay with RARα-V5 mutant R272-A. Format: biochemical. To be noted: 1 μM ligand; FIG. 2.
Method: Immunoprecipitations and western analyses were performed as follows. CV-1 whole cell extract from transfected cells (1 mg) was used for each immunoprecipitation. Cell lysates were incubated with ligands on ice for 1 hour. […] After a 1 hour incubation on ice with primary antibody (mouse anti-V5, Invitrogen), protein G-agarose (SIGMA) was added and samples were rocked overnight at 4° C. […] Membranes were probed with the indicated antibodies in PBS-T buffer (PBS with 0.1% Tween-20) containing 5% nonfat dry milk, and washed in PBS-T buffer. […]

Results on 6 molecules are retold here after US20030003517A1, “Methods of detecting dissociated nuclear hormone receptor ligands” (priority 2001, published 2003).

Where a chain is given by its changes, count along the chain named.

For `CC(C)c1cc(C(=O)Nc2ccc(C(=O)O)c(F)c2)c(O)c(C(C)C)c1` [AGN194365], in experiment [1] (ligands 1 μM, FIG. 3B), the “SRC-1 recruitment compared to TTNPB” value is reported as 65%. The “ligand mediated dissociation of N-CoR” value in experiment [1] was “dissociation of N-CoR”. Besides, in experiment [2], the “transactivation at RARα” value was “potent and effective transactivation properties”.

With “p300 (coactivator p300/CBP) (from UniProt Q09472 2-2414)”, the values for the % recruitment relative to TTNPB in experiment [3] and in experiment [4] were 30% and 34%, respectively.

For the molecule `CCOc1c(C(C)C)cc(C(=O)Nc2cc(F)c(C(=O)O)c(F)c2)cc1C(C)C` [AGN196382], the “activation of wild type RARα” value in experiment [5] was “significantly reduced relative to TTNPB”. For the same molecule, in experiment [6], the “dose at which anti-AP-1 activity is detectable” value is given as “greater than 10 μM” and the “anti-AP-1 activity (antagonism of TPA stimulated collagenase reporter activity)” value is listed as “similarly efficacious”. Also, in experiment [1], the “dose at which SRC-1 recruitment to the ternary complex is apparent” value was “greater than 10 μM”, the “ligand mediated dissociation of N-CoR” value is listed as “nearly absent” and the “SRC-1 recruitment to the wild type ternary complex” value was “essentially identical for the two ligands”. For the same molecule, the “p300 recruitment relative to TTNPB” value in experiment [1] (ligands 1 μM, FIG. 3B) worked out at 30%. Besides, the “ligand mediated dissociation of N-CoR” value in experiment [1] (listed as 196382) is reported as “significantly impaired”. For the same molecule, the “activation of RARα(R272-A)” value in experiment [7] was “not activated at all”. In addition, the “transactivation at RARα” value in experiment [2] is recorded as “no activity at RARα except at the highest dose (1 μM) tested”. Besides, the “SRC-1 recruitment to RARα R272-A ternary complex” value in experiment [8] is “lack of recruitment of SRC-1”.

On to `CCOc1c(C2CC2)cc(C(=O)Nc2cc(F)c(C(=O)O)c(F)c2)cc1C(C)(C)C` [AGN196412], for which the “ACTR recruitment compared to TTNPB” value in experiment [1] (ligands 1 μM, FIG. 3B) stood at 65%. The “ligand mediated dissociation of N-CoR” value in experiment [1] is “significantly impaired”. Moreover, the “transactivation at RARα” value in experiment [2] is “no activity at RARα except at the highest dose (1 μM) tested”.

Regarding `CC12CCC(C)(CC1)c1c2cc(C(=O)Nc2cc(F)c(C(=O)O)c(F)c2)c(O)c1Br` [AGN194794], the “p300 recruitment relative to TTNPB” value in experiment [1] (ligands 1 μM, FIG. 3B) was determined as 34%. Further, in experiment [1], the “ligand mediated dissociation of N-CoR” value was “full N-CoR disengagement” and the “SRC-1 recruitment to the wild type ternary complex” value was “essentially identical for the two ligands”. In addition, the “ligand mediated dissociation of N-CoR” value in experiment [1] (listed as 194794) is on record as “dissociation of N-CoR”. Moreover, the “transactivation at RARα” value in experiment [2] is “activated RARα, albeit with slightly less efficacy and potency”.

On to `C/C(=C\c1ccc(C(=O)O)cc1)c1ccc2c(c1)C(C)(C)CCC2(C)C` [TTNPB, reference compound], for which the “anti-AP-1 activity (antagonism of TPA stimulated collagenase reporter activity)” value in experiment [6] is “potent and efficacious anti-AP-1 activity”.
